Experimental data from patent publication US8299088B2, “Compositions and methods for treating cancer” (priority 2003, dated 2012).
Read-outs that look alike come from different tables or passages of the source.

Experiments:
[1] = system: H460 cells; experiment: Intracellular activation of hypoxia activated prodrugs (drug metabolism in medium of cells, LC-MS/UV 370 nm); conditions: for Example 12 compound UV peak area (370 nm): drug only (no cells), ~30 μM, 3 hours 37° C
[2] = system: H460 cells
[3] = system: H460 cells; experiment: Clonogenic toxicity assay; type: cell-based, human; conditions: 2 hr compound exposure; for IC90: Homo sapiens, NCI-H460, normoxic (air) and anoxic, no significant difference
Procedure: The clonogenic assay measures the reproductive ability of a surviving cell by specifically determining if a cell can grow to form a colony of greater than 50 cells. Briefly, cells are treated with a drug for an acute exposure and then the drug is removed. Cells are trypinized to form single cell suspensions and known numbers of cells are plated and incubated until colonies form. Colonies are counted and the cell survival is calculated based on number of colonies formed in the treated groups compared to number of colonies formed in the untreated controls. […] The terms aerobic and normoxic are used interchangeably.
Exponentially growing human H460 cells (obtained from ATCC) were seeded into 60 mm notched glass plates between 2.5 and 5×10^5 cells per plate and grown in RPMI medium supplemented with 10% fetal bovine serum for 2 days prior to initiating treatment. On the day of the experiment drug stocks of known concentrations were prepared in complete medium and 2 ml added to each plate. Glass plates were sealed into airtight aluminum vessels equipped with a valve to control gas flow. To achieve complete equilibration between the gas phase and the liquid phase a series of gas exchanges were performed on each vessel while shaking. Vessels were evacuated and gassed with either a certified anoxic gas mixture (95% nitrogen and 5% carbon dioxide) or with aerobic gas mixture (95% air and 5% carbon dioxide). Specifically, each vessel was evacuated to minus 26 inches of mercury and held for 15 seconds before gassing at 20 psi and again holding for 15 seconds. After a series of five evacuations and gassings the vessels were held an additional 5 minutes before a final evacuation and refilling of each vessel with the desired gas mixture at 0.5 psi above atmospheric pressure. Cells were incubated for 2 hours at 37° C. […] The exact concentration of each stock was determined by counting with a Coulter Z2 particle counter. […] Colonies of greater than 50 cells were counted and the surviving fraction determined.

## CC[C@@]1(O)C(=O)OCc2c1cc1n(c2=O)Cc2cc3cc(O)ccc3nc2-1 [10-OH Camptothecin, 10-Hydroxycamptothecin, reference compound]
[1]; aerobic
  Example 12 compound UV peak area (370 nm): 0
[1]; anoxic
  Example 12 compound UV peak area (370 nm): 0

## CCC1(O)C(=O)OCc2c1cc1n(c2=O)Cc2cc3cc(OCc4cnc([N+](=O)[O-])n4C)ccc3cc2-1 (stereo not drawn) [Example 12]
[1]; in words
  selectivity of release mechanism (anoxic versus hypoxic): highly selective
[1]; trial 4: anoxic, with H460 cells
  degree of release (conversion to 10 hydroxy-camptothecin): over half
[2]
  release of 10 hydroxycamptothecin: no detectable release
[2]; 3 h, 30 uM
  10-Hydroxy Campothecin UV peak area (370 nm): ~0

## COc1cccc2c1C(=O)c1c(O)c3c(c(O)c1C2=O)C[C@@](O)(C(C)=O)C[C@@H]3O[C@H]1C[C@H](N)[C@H](O)[C@H](C)O1 [daunorubicin]
[3]
  toxicity difference between normoxic (air) and anoxic conditions: no significant toxicity difference
[3]; read-out: IC 90 (90% inhibition of colony formation)
  IC90: 0.5 µM
[3]; read-out: IC 90 data ranges over multiple experiments
  IC90: 0.2 to 1 µM
